US10428080B2, “TBK/IKK inhibitor compounds and uses thereof” (Merck Patent GmbH, priority 2015, dated 2019)
Counter-ions that a name gives are not always drawn.

Columns and labels:
TBK1 = molecular target: T1, TBK1 (Homo sapiens, UniProt Q9UHD2); test: TBK Biochemical Assay; conditions: read-out: TBK1 IC50
T1 sequence (Q9UHD2 1-729): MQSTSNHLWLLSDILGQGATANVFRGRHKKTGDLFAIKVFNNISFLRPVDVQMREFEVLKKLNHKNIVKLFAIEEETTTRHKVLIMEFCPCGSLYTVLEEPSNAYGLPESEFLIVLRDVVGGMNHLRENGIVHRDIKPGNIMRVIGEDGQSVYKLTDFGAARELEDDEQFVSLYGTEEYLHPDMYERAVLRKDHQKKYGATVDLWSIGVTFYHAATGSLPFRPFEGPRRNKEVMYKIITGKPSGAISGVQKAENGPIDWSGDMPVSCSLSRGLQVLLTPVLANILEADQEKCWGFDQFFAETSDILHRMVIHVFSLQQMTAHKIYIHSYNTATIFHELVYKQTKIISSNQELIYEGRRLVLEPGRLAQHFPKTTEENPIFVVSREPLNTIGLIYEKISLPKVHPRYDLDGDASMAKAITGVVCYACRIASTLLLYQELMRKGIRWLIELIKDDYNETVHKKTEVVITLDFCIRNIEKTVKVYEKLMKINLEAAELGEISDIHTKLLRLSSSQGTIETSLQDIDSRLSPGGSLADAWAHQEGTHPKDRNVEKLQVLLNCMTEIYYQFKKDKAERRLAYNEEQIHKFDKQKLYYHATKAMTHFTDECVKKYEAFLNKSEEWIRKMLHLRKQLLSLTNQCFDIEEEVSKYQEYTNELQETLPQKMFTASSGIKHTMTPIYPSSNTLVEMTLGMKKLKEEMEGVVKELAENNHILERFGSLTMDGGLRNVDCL
Experimental: Example 482: TBK Biochemical Assay
(§1) Test compounds were transferred into Labcyte polypropylene 384 well plates (P055-25) and diluted to 3 mM using DMSO. 3 mM test compounds were dispensed using Labcyte ECHO dose response module into Greiner 784075 plates (columns 3-12 and 13-22, 10 point 1:4) so that high concentration was 30 uM final. 100 uM of a reference compound (1 uM final high concentration). Backfilling was performed if necessary so that all wells contain 1% DMSO final: […]
(§2) add 75 nl DMSO/well into columns 1, 2 and 24 using Labcyte Echo. add 75 nl 1.0 mM staurosporine/well into column 23 using Labcyte Echo ([…]) add 4.5 ul enzyme/well using multidrop dispenser add 3 ul substrate/well using multidrop dispenser incubate at 25° C. in Heidolph incubator for 90 min. add 7.5 ul 2× stop buffer using multidrop dispenser read on labchip ez reader II using TBK1.job
(§3) Raw data files were opened in the Caliper LabChip Reviewer program (Version 3.0.265.0 SP2) and peak assignments were adjusted to reflect “substrate first” with the software's post-run analysis options. A spline-fit baseline was applied using the software's analysis algorithm.

IKKε = molecular target: T2, IKKε (Homo sapiens, UniProt Q14164); test: IKKe Biochemical Assay; conditions: read-out: IKKε IC50
T2 sequence (Q14164 1-716): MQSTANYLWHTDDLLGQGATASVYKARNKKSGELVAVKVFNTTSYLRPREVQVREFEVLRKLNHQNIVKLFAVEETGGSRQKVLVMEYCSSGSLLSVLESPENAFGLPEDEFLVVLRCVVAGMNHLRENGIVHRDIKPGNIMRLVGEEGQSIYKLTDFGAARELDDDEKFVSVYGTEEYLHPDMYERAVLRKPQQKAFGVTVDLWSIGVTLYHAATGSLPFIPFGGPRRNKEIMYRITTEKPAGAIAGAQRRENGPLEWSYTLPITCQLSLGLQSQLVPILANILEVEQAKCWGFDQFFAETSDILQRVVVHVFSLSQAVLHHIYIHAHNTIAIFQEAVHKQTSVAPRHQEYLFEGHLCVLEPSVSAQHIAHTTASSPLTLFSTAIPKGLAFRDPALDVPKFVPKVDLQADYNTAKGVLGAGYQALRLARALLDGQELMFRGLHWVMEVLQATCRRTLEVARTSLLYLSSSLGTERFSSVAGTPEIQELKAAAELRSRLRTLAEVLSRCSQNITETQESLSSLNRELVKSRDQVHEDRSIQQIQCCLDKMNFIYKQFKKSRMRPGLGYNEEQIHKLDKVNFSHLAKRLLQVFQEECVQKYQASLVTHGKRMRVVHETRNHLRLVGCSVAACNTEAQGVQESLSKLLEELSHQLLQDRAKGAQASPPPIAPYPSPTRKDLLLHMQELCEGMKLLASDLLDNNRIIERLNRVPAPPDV
Experimental: as §1, with “(Greiner” for “Greiner”
as §2, with “C.” for “C. in Heidolph incubator”, “buffer” for “buffer using multidrop dispenser”, “IKKε. job” for “TBK1.job”
as §3

Row | IC50 (TBK1) | IC50 (IKKε) | Compound
1 | < 100 nM | < 100 nM | COc1cc(C(=O)N(C)C)cnc1-c1cc2nccc(-c3ccc(OC4CCOCC4)c(C#N)c3)c2o1 [Compound 274, 6-(7-(3-cyano-4-(tetrahydro-2H-pyran-4-yloxy)phenyl)furo[3,2-b]pyridin-2-yl)-5-methoxy-N,N-dimethylnicotinamide hydrochloride]
2 | > 5000 nM | 100 to 1000 nM | CCOC(=O)c1ccc(-c2cc3nccc(-c4ccc(N5CC[C@@H](F)C5)c(C#N)c4)c3o2)cc1 [Compound 191, 4-{7-[3-Cyano-4-((R)-3-fluoro-pyrrolidin-1-yl)-phenyl]-furo[3,2-b]pyridin-2-yl}-benzoic acid ethyl ester]
3 | 100 to 1000 nM | 100 to 1000 nM | COc1cc(C(=O)N(C)CCO)cnc1-c1cc2ncc(C)c(-c3ccc(OC4CCOCC4)c(C#N)n3)c2o1 [Compound 360, 6-[7-[6-cyano-5-(oxan-4-yloxy)pyridin-2-yl]-6-methylfuro[3,2-b]pyridin-2-yl]-N-(2-hydroxyethyl)-5-methoxy-N-methylpyridine-3-carboxamide hydrochloride]
4 | > 5000 nM | > 5000 nM | COc1cc(C(=O)N(C)CCO)ccc1-c1cc2ncc(C3CC3)c(-c3ccc(OC4CCOCC4)c(C#N)c3)c2o1 [Compound 306, 4-(7-(3-cyano-4-(tetrahydro-2H-pyran-4-yloxy)phenyl)-6-cyclopropylfuro[3,2-b]pyridin-2-yl)-N-(2-hydroxyethyl)-3-methoxy-N-methylbenzamide]
5 | 100 to 1000 nM | < 100 nM | CN(C)C(=O)c1ccc(-c2cc3nccc(-c4cc(F)c(NC5CCOCC5)c(C#N)c4)c3o2)cc1 [Compound 224, 4-(7-(3-cyano-5-fluoro-4-(tetrahydro-2H-pyran-4-ylamino)phenyl)furo[3,2-b]pyridin-2-yl)-N,N-dimethylbenzamide hydrochloride]
6 | < 100 nM | < 100 nM | COc1cc(C(=O)N(C)C2CC2)ccc1-c1cc2nccc(-c3ccc(OC4CCOCC4)c(C#N)c3)c2o1 [Compound 60, 4-{7-[3-Cyano-4-(tetrahydro-pyran-4-yloxy)-phenyl]-furo[3,2-b]pyridin-2-yl}-N-cyclopropyl-3-methoxy-N-methyl-benzamide]
7 | 1000 to 5000 nM | 1000 to 5000 nM | N#Cc1cc(-c2ccnc3cc(-c4ccc(C(=O)O)cc4)oc23)ccc1Oc1cccc(F)c1 [Compound 188, 4-{7-[3-Cyano-4-(3-fluoro-phenoxy)-phenyl]-furo[3,2-b]pyridin-2-yl}-benzoic acid]
8 | 100 to 1000 nM | < 100 nM | COc1cc(C(=O)N(C)C)ccc1-c1cc2nccc(-c3ccc(NC4CC(C)OC(C)C4)c(C#N)c3)c2o1 (stereo not shown) [Compound 228, 4-(7-(3-cyano-4-(2,6-dimethyl-tetrahydro-2H-pyran-4-ylamino)phenyl)furo[3,2-b]pyridin-2-yl)-3-methoxy-N,N-dimethylbenzamide]
9 | < 100 nM | < 100 nM | CCN(C)C(=O)c1ccc(-c2cc3nccc(-c4ccc(NC5CCOCC5)c(C#N)c4)c3o2)c(OC)c1 [Compound 262, 4-(7-(3-cyano-4-(tetrahydro-2H-pyran-4-ylamino)phenyl)furo[3,2-b]pyridin-2-yl)-N-ethyl-3-methoxy-N-methylbenzamide]
10 | 100 to 1000 nM | 100 to 1000 nM | COc1cc(C(=O)N(C)CCO)cnc1-c1cc2ncc(OC)c(-c3ccc(OC4CCOCC4)c(C#N)n3)c2o1 [Compound 362, 6-[7-[6-cyano-5-(oxan-4-yloxy)pyridin-2-yl]-6-methoxyfuro[3,2-b]pyridin-2-yl]-N-(2-hydroxyethyl)-5-methoxy-N-methylpyridine-3-carboxamide]
11 | < 100 nM | < 100 nM | CN(C)C(=O)c1ccc(-c2cc3nccc(-c4ccc(OC5CCOCC5)c(C#N)c4)c3o2)c(OC(F)(F)F)c1 [Compound 241, 4-(7-(3-cyano-4-(tetrahydro-2H-pyran-4-yloxy)phenyl)furo[3,2-b]pyridin-2-yl)-N,N-dimethyl-3-(trifluoromethoxy)benzamide]
12 | 100 to 1000 nM | 100 to 1000 nM | CN(C)C(=O)c1ccc(-c2cc3nccc(-c4ccc(OC5CCOCC5)c(C#N)c4)c3o2)c(C(F)(F)F)c1 [Compound 240, 4-(7-(3-cyano-4-(tetrahydro-2H-pyran-4-yloxy)phenyl)furo[3,2-b]pyridin-2-yl)-N,N-dimethyl-3-(trifluoromethyl)benzamide]
13 | 100 to 1000 nM | 100 to 1000 nM | C[C@@H]1COC[C@H](C)[C@H]1Oc1ccc(-c2ccnc3cc(-c4ccc(C(=O)N(C)C)cc4)oc23)cc1C#N (single isomer, unassigned) [Compound 219, 4-(7-(3-cyano-4-(3,5-dimethyl-tetrahydro-2H-pyran-4-yloxy)phenyl)furo[3,2-b]pyridin-2-yl)-N,N-dimethylbenzamide hydrochloride]
14 | > 5000 nM | 100 to 1000 nM | CN(C)C(=O)c1ccc(-c2cc3nccc(-c4ccc(OC5CCNCC5)c(C#N)c4)c3o2)nc1 [Compound 190]
15 | 100 to 1000 nM | 100 to 1000 nM | CN(C)C(=O)c1ccc(-c2cc3nccc(-c4ccc(O)c(C#N)c4)c3o2)cc1 [Compound 175, 4-[7-(3-Cyano-4-hydroxy-phenyl)-furo[3,2-b]pyridin-2-yl]-N,N-dimethyl-benzamide]
16 | < 100 nM | < 100 nM | COc1cc(C(=O)N2CC[C@H](O)C2)ccc1-c1cc2nccc(-c3ccc(NC4CCOCC4)c(C#N)c3)c2o1 [Compound 103, 5-{2-[4-((S)-3-Hydroxy-pyrrolidine-1-carbonyl)-2-methoxy-phenyl]-furo[3,2-b]pyridin-7-yl}-2-(tetrahydro-pyran-4-ylamino)-benzonitrile]
17 |  | 100 to 1000 nM | CN(C)C(=O)c1cnc(-c2cc3nccc(-c4cc(F)c(NC5CCOCC5)c(C#N)c4)c3o2)c(F)c1 [Compound 248, 6-(7-(3-cyano-5-fluoro-4-(tetrahydro-2H-pyran-4-ylamino)phenyl)furo[3,2-b]pyridin-2-yl)-5-fluoro-N,N-dimethylnicotinamide]
18 |  | 100 to 1000 nM | COC(=O)c1ccc(-c2cc3nccc(-c4ccc(OC5CC6(COC6)C5)c(C#N)c4)c3o2)cc1 [Compound 204]
19 |  | > 5000 nM | CN(C)C(=O)c1ccc(-c2cc3nccc(-c4ccc(Oc5ccncc5)c(C#N)c4)c3o2)cc1 [Compound 200, 4-{7-[3-Cyano-4-(pyridin-4-yloxy)-phenyl]-furo[3,2-b]pyridin-2-yl}-N,N-dimethyl-benzamide]

Row | Compound | IC50 (TBK1) | IC50 (IKKε)
20 | COc1cc(C(=O)N2CC3CC(C2)O3)ccc1-c1cc2nccc(-c3ccc(OC4CCOCC4)c(C#N)c3)c2o1 [Compound 6, 5-{2-[2-Methoxy-4-(6-oxa-3-aza-bicyclo[3.1.1]heptane-3-carbonyl)-phenyl]-furo[3,2-b]pyridin-7-yl}-2-(tetrahydro-pyran-4-yloxy)-benzonitrile] | < 100 nM | < 100 nM
